Results from PMC12410356 (International Journal for Parasitology: Drugs and Drug …, 2025).

These molecules were tested on E. multilocularis metacestode vesicles (assay: Phosphoglucose isomerase (PGI) release assay (damage-marker release) on metacestode vesicles). Settings: overview screen, 10 μM, singlets, 5 days, relative to 0.1 % Triton X-100, DMSO subtracted.
Type: cell-based, Echinococcus multilocularis
Method: In order to quantify the drug-induced damage on whole metacestode vesicles, phosphoglucose isomerase (PGI) assay was performed as described previously ([Stadelmann et al., 2010]) with few adaptations published recently ([Kaethner et al., 2023]). In short, 8 to 12 weeks-old metacestode vesicles were purified using 2 % sucrose with subsequent washes in PBS. Metacestode vesicles were diluted in two volumes of DMEM without phenol red containing penicillin (100 U/mL) and streptomycin (100 μg/mL). […] 0.1 % DMSO was used as a negative solvent control and 0.1 % Triton X-100 was used as a positive total damage control. Metacestode vesicles were incubated under a humid, 5 % CO2 atmosphere at 37 °C. After five and twelve days, supernatant was taken and pictures were made using a Nikon SMZ18 stereo microscope (Nikon, Basel, Switzerland) at 7.5 × magnification. PGI activity in the supernatants was measured on a HIDEX Sense microplate reader (Hidex, Turku, Finland). The corresponding values of the DMSO controls were subtracted from the values of the compounds and then PGI activity was calculated relative to 0.1 % Triton X-100. […] IC50 values were calculated applying the 3 parameter Weibull type 1 in R for each of the three independent experiments ([Ritler et al., 2020]).

Row | Structure (SMILES) | PGI d5 (relative PGI release) [%]
1 | CC(C)(C)c1ccc(OCCn2nc(C(=O)O)c3ccccc3c2=O)cc1 [MMV1634387] | -1.414
2 | CC(C)Oc1ccc(-c2nc(-c3cccc4c3CC[C@@H]4NCCO)no2)cc1C#N [MMV1580492] | -0.3732
3 | CC1(C)C[C@H]1C(=O)N/C(=C\CCCCSC[C@@H](N)C(=O)O)C(=O)O.[Na+] [MMV1613559] | -0.3777
4 | O=C(Nc1nnc(-c2ccccc2)o1)c1ccc(F)cc1 [MMV1578578] | -0.5299
5 | CNC(=O)C1O[C@@H](n2cnc3c(NCc4cccc(I)c4)nc(Cl)nc32)[C@H](O)[C@@H]1O (stereo partly drawn) [MMV1593514] | -0.4087
6 | CC(Cc1ccccc1)C(=O)Nc1ccc(Cl)cc1C(=O)O (stereo not drawn) [MMV1579781] | -1.72
7 | Cl.NC1(C(=O)O)CCP(=O)(O)CC1 (stereo not drawn) [MMV1593538] | -1.639
8 | COc1ccc(NS(=O)(=O)c2ccc(Cl)s2)cn1 [MMV1580499] | 0.09331
9 | CCOC(=O)/C=C/[C@H](C[C@@H]1CCNC1=O)NC(=O)[C@H](CC)n1cccc(NC(=O)c2cc(C)on2)c1=O [MMV1782112] | 0.1675
10 | Cc1oncc1C(=O)Nc1ccc(C(F)(F)F)cc1 [MMV003291] | 0.3849
11 | Clc1cc(Cl)c2c(c1)CCc1ccccc1C2n1ccnc1 (stereo not drawn) [MMV1634492] | -1.087
12 | CSc1ccc2c(c1)C(N1CCN(C)CC1)Cc1ccccc1S2 (stereo not drawn) [MMV002505] | 0.4968
13 | Cc1cc(CCOc2c(C)cc(-c3nnn(C)n3)cc2C)on1 [MMV1782349] | -0.7312
14 | O=C(Nc1ccccc1)N(Cc1cc(Br)ccc1O)c1ccc(F)cc1 [MMV1581552] | -0.185
15 | OB1OCc2cc(Cl)ccc21 [MMV1634363] | -0.4278
16 | Cc1onc(-c2ccccc2Cl)c1C(=O)N[C@@H]1C(=O)N2[C@@H]1SC(C)(C)[C@@H]2C(=O)O [MMV002740] | -1.463

Same assay, conditions: overview screen, 10 μM, singlets, 12 days, relative to 0.1 % Triton X-100, DMSO subtracted

Row | Structure (SMILES) | PGI d12 (relative PGI release) [%]
17 | CC(C)(C)c1ccc(OCCn2nc(C(=O)O)c3ccccc3c2=O)cc1 [MMV1634387] | -12.4336
18 | CC(C)Oc1ccc(-c2nc(-c3cccc4c3CC[C@@H]4NCCO)no2)cc1C#N [MMV1580492] | -18.7012
19 | CC1(C)C[C@H]1C(=O)N/C(=C\CCCCSC[C@@H](N)C(=O)O)C(=O)O.[Na+] [MMV1613559] | -1.053
20 | O=C(Nc1nnc(-c2ccccc2)o1)c1ccc(F)cc1 [MMV1578578] | 45.2443
21 | CNC(=O)C1O[C@@H](n2cnc3c(NCc4cccc(I)c4)nc(Cl)nc32)[C@H](O)[C@@H]1O (stereo partly drawn) [MMV1593514] | 0.1534
22 | CC(Cc1ccccc1)C(=O)Nc1ccc(Cl)cc1C(=O)O (stereo not drawn) [MMV1579781] | 1.6268
23 | Cl.NC1(C(=O)O)CCP(=O)(O)CC1 (stereo not drawn) [MMV1593538] | -13.1352
24 | COc1ccc(NS(=O)(=O)c2ccc(Cl)s2)cn1 [MMV1580499] | -16.9426
25 | CCOC(=O)/C=C/[C@H](C[C@@H]1CCNC1=O)NC(=O)[C@H](CC)n1cccc(NC(=O)c2cc(C)on2)c1=O [MMV1782112] | -19.6518
26 | Cc1oncc1C(=O)Nc1ccc(C(F)(F)F)cc1 [MMV003291] | -17.479
27 | Clc1cc(Cl)c2c(c1)CCc1ccccc1C2n1ccnc1 (stereo not drawn) [MMV1634492] | -25.0724
28 | CSc1ccc2c(c1)C(N1CCN(C)CC1)Cc1ccccc1S2 (stereo not drawn) [MMV002505] | -0.02837
29 | Cc1cc(CCOc2c(C)cc(-c3nnn(C)n3)cc2C)on1 [MMV1782349] | -0.8271
30 | O=C(Nc1ccccc1)N(Cc1cc(Br)ccc1O)c1ccc(F)cc1 [MMV1581552] | -25.2603
31 | OB1OCc2cc(Cl)ccc21 [MMV1634363] | -12.2339
32 | Cc1onc(-c2ccccc2Cl)c1C(=O)N[C@@H]1C(=O)N2[C@@H]1SC(C)(C)[C@@H]2C(=O)O [MMV002740] | -24.5158

Each molecule was assayed on E. multilocularis metacestode vesicles (assay: Metacestode vesicle viability assay (ATP, CellTiter-Glo)). Settings: 10 µM.
Type: cell-based, Echinococcus multilocularis
Method: Viability was assessed after 12 days using the same metacestode vesicles as for the PGI release assay. Triton X-100 was added to each well to a final concentration of 0.1 %. Subsequently the metacestode vesicles were broken mechanically and 50 μL of the supernatant was mixed with 50 μL of CellTiter-Glo® buffer (Promega, Dübendorf, Switzerland). Measurements were performed on a HIDEX Sense microplate reader.

Row | Structure (SMILES) | Viability d12 (relative viability) [%]
33 | CNC(=O)C1O[C@@H](n2cnc3c(NCc4cccc(I)c4)nc(Cl)nc32)[C@H](O)[C@@H]1O (stereo partly drawn) [MMV1593514] | 79.1378
34 | Cc1oncc1C(=O)Nc1ccc(C(F)(F)F)cc1 [MMV003291] | 99.9529
35 | Cc1onc(-c2ccccc2Cl)c1C(=O)N[C@@H]1C(=O)N2[C@@H]1SC(C)(C)[C@@H]2C(=O)O [MMV002740] | 55.1081

Same assay, conditions: overview screen, 10 μM, singlets, 12 days, relative to DMSO control

Row | Structure (SMILES) | Viability d12 (relative viability) [%]
36 | CC(C)(C)c1ccc(OCCn2nc(C(=O)O)c3ccccc3c2=O)cc1 [MMV1634387] | 144.45
37 | CC(C)Oc1ccc(-c2nc(-c3cccc4c3CC[C@@H]4NCCO)no2)cc1C#N [MMV1580492] | 55.483
38 | CC1(C)C[C@H]1C(=O)N/C(=C\CCCCSC[C@@H](N)C(=O)O)C(=O)O.[Na+] [MMV1613559] | 85.3181
39 | O=C(Nc1nnc(-c2ccccc2)o1)c1ccc(F)cc1 [MMV1578578] | 33.8998
40 | CC(Cc1ccccc1)C(=O)Nc1ccc(Cl)cc1C(=O)O (stereo not drawn) [MMV1579781] | 82.6324
41 | Cl.NC1(C(=O)O)CCP(=O)(O)CC1 (stereo not drawn) [MMV1593538] | 39.7446
42 | COc1ccc(NS(=O)(=O)c2ccc(Cl)s2)cn1 [MMV1580499] | 78.1001
43 | CCOC(=O)/C=C/[C@H](C[C@@H]1CCNC1=O)NC(=O)[C@H](CC)n1cccc(NC(=O)c2cc(C)on2)c1=O [MMV1782112] | 109.382
44 | Clc1cc(Cl)c2c(c1)CCc1ccccc1C2n1ccnc1 (stereo not drawn) [MMV1634492] | 206.655
45 | CSc1ccc2c(c1)C(N1CCN(C)CC1)Cc1ccccc1S2 (stereo not drawn) [MMV002505] | 82.0463
46 | Cc1cc(CCOc2c(C)cc(-c3nnn(C)n3)cc2C)on1 [MMV1782349] | 107.625
47 | O=C(Nc1ccccc1)N(Cc1cc(Br)ccc1O)c1ccc(F)cc1 [MMV1581552] | 81.6601
48 | OB1OCc2cc(Cl)ccc21 [MMV1634363] | 101.699
